Measured values reported in patent US12331018B2, “Pyrrolidine orexin receptor agonists” (Merck Sharp & Dohme LLC, priority 2019, dated 2025).
Like-named read-outs stand apart in the source and are kept apart here.

Molecular target: T1, human OX2R (Homo sapiens, UniProt O43614)
T1 construct: expressed in transfected cells; host or cells: CHO (Chinese hamster ovary) cells, grown under G418 selection
T1 sequence (O43614 1-444): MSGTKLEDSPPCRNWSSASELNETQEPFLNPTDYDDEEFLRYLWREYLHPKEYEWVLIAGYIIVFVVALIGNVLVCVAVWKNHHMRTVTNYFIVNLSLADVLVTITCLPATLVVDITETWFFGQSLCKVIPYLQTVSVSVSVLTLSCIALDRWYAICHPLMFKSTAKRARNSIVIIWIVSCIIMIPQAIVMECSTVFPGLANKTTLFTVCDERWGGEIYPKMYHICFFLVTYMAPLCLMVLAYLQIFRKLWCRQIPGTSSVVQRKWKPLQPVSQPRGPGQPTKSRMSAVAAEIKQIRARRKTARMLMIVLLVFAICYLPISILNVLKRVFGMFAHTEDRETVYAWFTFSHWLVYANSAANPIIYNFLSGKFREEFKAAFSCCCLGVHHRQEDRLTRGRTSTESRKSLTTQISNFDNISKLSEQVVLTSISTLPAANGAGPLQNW
Test: IPOne (IP-1 accumulation) assay in CHO cells expressing human OX2R
Format: cell-based
Conditions: for Emax, % of reference agonist: OX2R, percentage of sample raw value/mean max effect (reference compound at 1 uM with 100% activity)
Text: The utility of the compounds in accordance with the present invention as orexin receptor OX1R and/or OX2R agonists may be readily determined without undue experimentation by methodology well known in the art. Both the OX1R and/or OX2R G-coupled protein receptors (GPCRs) couple through the Gaq signaling pathway, which ultimately promotes calcium mobilization via inositol triphosphate (IP3) production. The half-life of IP-3 is relatively short, being rapidly metabolized to inositol monophosphate (IP-1), which can be readily detected using a commercially available assay kit (IP-One; Cisbio; cat #621PAPEC) coupled with a cell line expressing the target receptor(s) of interest. The utility of the compounds in accordance with the present invention as orexin receptor OX1R and/or OX2R agonists may be determined utilizing this assay.
In a typical experiment, the OX1 and OX2 receptor agonist activity is determined in accordance with the following general experimental method. Chinese hamster ovary (CHO) cells expressing human OX1R and/or the human OX2R were grown in Iscove's modified DMEM containing glutaMAX™, 1% G418, 100 U/mL penicillin, 100 μg/mL streptomycin and 10% heat-inactivated qualified fetal bovine serum (FBS). The OX2R cells were seeded at 10,000 cells/well/50 μL and the OX1R cells were seeded at 20,000 cells/well/50 μL into 384-well white tissue culture plates (Greiner; cat #781080). All cell/media reagents were from GIBCO-Invitrogen Corp. The seeded cell plate(s) were incubated at 37° C. with 5% CO2 and 85% humidity for 20-24 hours. On the day of the assay, assay-ready compound plates were prepared using an acoustic liquid handler (ECHO; Labcyte), which dispensed sufficient volume of test compound stock (10 mM in DMSO) or 100% DMSO to prepare 10 point, ½-log dilutions in a final volume of 202.5 nL/well in all test wells of a 384-well diamond plate (Labcyte). Following completion of assay-ready plates, importantly, the next three steps were performed with minimal delay: 1) 20 μl of 1× stimulation buffer was added to the compound plate using a Multidrop Combi (small cassette, Thermo Fisher Scientific cat #24073290); 2) culture medium was removed from the cell plate using the Bluewasher plate washer (gentle spin; BlueCatBio); 3) 14 μl of compound/stimulation buffer mixture was added to the cell plate using a Bravo liquid handler (Agilent) prior to incubating cell plates at 37° C. with 5% CO2 and 85% humidity for 1 or 2 hours (OX1R and OX2R, respectively). During this incubation, IP-one detection reagents were prepared (38:1:1 lysis buffer:D2:AB-cryptate reagents). Six μL of mixed detection reagents were added to the cell plate using a Multidrop Combi (small cassette, Thermo Fisher Scientific cat #24073290) and incubated 60 minutes at room temperature in the dark. Fluorescence signal was detected using an Envision plate reader (Perkin Elmer) [LANCE/DELFIA Dual Enh (Em: APC 665; Ex: Cy5 620)].
For each compound, data were fit to a four parameter logistic fit (ActivityBase software) and the EC50 was reported as the inflection point of the resulting curve. Percent effect for each test compound was determined as the percentage of sample raw value/mean max effect, where the mean max effect was derived from the mean raw value of 32 control wells per assay plate (using Orexin A (cat #003-30) at 1 μM for human OX1R and a reference compound at 1 uM with 100% activity previously established by comparison to Orexin A for human OX2R). The intrinsic orexin receptor agonist activity of a compound which may be used in the present invention may be determined by these assays.

[1] = CHO cells expressing human OX2R, IP-One assay, 2 hours incubation, four parameter logistic fit, read-out: OX2R Potency, EC50

CS(=O)(=O)N[C@H]1CCN(C(=O)CC(F)(F)F)[C@H]1CO[C@H]1CC[C@@H](c2ccccc2)CC1 (relative stereo) [Example 20, N-((CIS)-2-((((CIS)-4-phenylcyclohexyl)oxy)methyl)-1-(3,3,3-trifluoropropanoyl)pyrrolidin-3-yl)methanesulfonamide]
EC50 [1]: 1010 nM | Emax, % of reference agonist: 96.4%

CS(=O)(=O)N[C@H]1CCN(C(=O)NCC2CCC2)[C@H]1CO[C@H]1CC[C@@H](c2ccccc2)CC1 (relative stereo) [Example 21, (CIS)-N-(cyclobutylmethyl)-3-(methylsulfonamido)-2-((((CIS)-4-phenylcyclohexyl)oxy)-methyl)pyrrolidine-1-carboxamide]
EC50 [1]: 5.65 nM | Emax, % of reference agonist: 103.2%

CS(=O)(=O)N[C@H]1CCN(C(=O)NC2CC2)[C@H]1CO[C@H]1CC[C@@H](c2ccccc2)CC1 (relative stereo) [Example 22, (CIS)-N-cyclopropyl-3-(methylsulfonamido)-2-((((CIS)-4-phenylcyclohexyl)oxy)methyl)pyrrolidine-1-carboxamide]
EC50 [1]: 250 nM | Emax, % of reference agonist: 99.6%

CS(=O)(=O)N[C@H]1CCN(C(=O)OCC(F)F)[C@H]1CO[C@H]1CC[C@@H](c2ccccc2)CC1 (relative stereo) [Example 23, 2,2-difluoroethyl (CIS)-3-(methylsulfonamido)-2-((((CIS)-4-phenylcyclohexyl)oxy)methyl)-pyrrolidine-1-carboxylate]
EC50 [1]: 59.6 nM | Emax, % of reference agonist: 101.3%

CS(=O)(=O)N[C@H]1CCN(C(=O)OCC(F)(F)F)[C@H]1CO[C@H]1CC[C@@H](c2ccccc2)CC1 (relative stereo) [Example 24, 2,2,2-trifluoroethyl (CIS)-3-(methylsulfonamido)-2-((((CIS)-4-phenylcyclohexyl)oxy)methyl)pyrrolidine-1-carboxylate]
EC50 [1]: 493 nM | Emax, % of reference agonist: 100.2%

CS(=O)(=O)N[C@H]1CCN(C(=O)CO)[C@H]1CO[C@H]1CC[C@@H](c2ccccc2)CC1 (relative stereo) [Example 25, N-((CIS)-1-(2-hydroxyacetyl)-2-((((CIS)-4-phenylcyclohexyl)oxy)methyl)pyrrolidin-3-yl)methanesulfonamide]
EC50 [1]: 361 nM | Emax, % of reference agonist: 103.3%

CS(=O)(=O)N[C@H]1CCN(C(=O)C2CC2)C1COC1CCC(c2ccccc2)CC1 (single isomer, unassigned) [Example 26]
OX2R Potency, EC50 (nM) (CHO cells expressing human OX2R, IP-One assay, 2 hours incubation, four parameter logistic fit): INACTIVE | Emax, % of reference agonist: 17.1%

CS(=O)(=O)N[C@H]1CCN(C(=O)C2CC2)C1COC1CCC(c2ccccc2)CC1 (single isomer, unassigned) [Example 27]
EC50 [1]: 48.7 nM | Emax, % of reference agonist: 100.2%

COC(=O)N1CCC(NS(C)(=O)=O)[C@@H]1COC1CCC(C(C)C)CC1 (stereo in doubt) [Example 29, methyl (2R,3R)-2-(((4-isopropylcyclohexyl)oxy)methyl)-3-(methylsulfonamido)pyrrolidine-1-carboxylate]
EC50 [1]: 358 nM | Emax, % of reference agonist: 99.0%

COC(=O)N1CC[C@H](NS(C)(=O)=O)[C@@H]1CO[C@H]1CC[C@@H](c2ccccc2)CC1 [Example 11, methyl (2R,3S)-3-(methylsulfonamido)-2-((((CIS)-4-phenylcyclohexyl)oxy)methyl) pyrrolidine-1-carboxylate]
EC50 [1]: 115 nM | Emax, % of reference agonist: 100.2%

CS(=O)(=O)N[C@H]1CCN(C(=O)OCC(F)F)[C@H]1CO[C@H]1CC[C@@H](c2ccccc2)CC1 [Example 12, 2,2-difluoroethyl (2R,3S)-3-(methylsulfonamido)-2-((((CIS)-4-phenylcyclohexyl)oxy)methyl) pyrrolidine-1-carboxylate]
EC50 [1]: 81 nM | Emax, % of reference agonist: 101.1%

CCNC(=O)N1CC[C@H](NS(C)(=O)=O)[C@@H]1COC1CCC(C(C)C)CC1 (stereo partly drawn) [Example 28, (2R,3S)—N-ethyl-2-(((4-isopropylcyclohexyl)oxy)methyl)-3-(methylsulfonamido)pyrrolidine-1-carboxamide]
EC50: 57.8 nM | Emax, % of reference agonist: 99.8%

CC(C)C1CCC(OC[C@H]2[C@@H](NS(C)(=O)=O)CCN2C(=O)C2CC2)CC1 (stereo partly drawn) [Example 30, N-((2R,3S)-1-(cyclopropanecarbonyl)-2-(((4-isopropylcyclohexyl)oxy)methyl)pyrrolidin-3-yl)methanesulfonamide]
EC50 [1]: 433 nM | Emax, % of reference agonist: 100.6%
